Test results taken from the supplement of paper PMC11451515.

Tested on: SEM cells
Assay: cell viability relative to DMSO control; higher = less cytotoxic
Conditions: 48 h
Method in brief: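 Three leukemia lines were tested: NOMO1 and SEM at 500 cells/well and P12-Ichikawa at 1000 cells/well. Each was adapted for at least four passages in each medium and seeded in 5 μl in 1536-well plates, and library compounds in DMSO were pin-dosed from 47 μM to 0.79 nM in 11 threefold steps. After 48 h at 37°C, CellTiter-Glo One luminescence was read. Viability is a percentage relative to DMSO wells on each plate, with cell-free wells as background.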

[1] = HPLM + 10% dialyzed FBS, 0.000781 µM
[2] = HPLM + 10% dialyzed FBS, 0.00234 µM
[3] = HPLM + 10% dialyzed FBS, 0.00702 µM
[4] = HPLM + 10% dialyzed FBS, 0.0211 µM
[5] = HPLM + 10% dialyzed FBS, 0.0632 µM
[6] = HPLM + 10% dialyzed FBS, 0.19 µM
[7] = HPLM + 10% dialyzed FBS, 0.569 µM
[8] = HPLM + 10% dialyzed FBS, 1.71 µM
[9] = HPLM + 10% dialyzed FBS, 5.12 µM
[10] = HPLM + 10% dialyzed FBS, 15.4 µM
[11] = HPLM + 10% dialyzed FBS, 46.1 µM
[12] = RPMI 5 mM glucose + 10% FBS, 0.000781 µM
[13] = RPMI 5 mM glucose + 10% FBS, 0.00234 µM
[14] = RPMI 5 mM glucose + 10% FBS, 0.00702 µM
[15] = RPMI 5 mM glucose + 10% FBS, 0.0211 µM
[16] = RPMI 5 mM glucose + 10% FBS, 0.0632 µM
[17] = RPMI 5 mM glucose + 10% FBS, 0.19 µM
[18] = RPMI 5 mM glucose + 10% FBS, 0.569 µM
[19] = RPMI 5 mM glucose + 10% FBS, 1.71 µM
[20] = RPMI 5 mM glucose + 10% FBS, 5.12 µM
[21] = RPMI 5 mM glucose + 10% FBS, 15.4 µM
[22] = RPMI 5 mM glucose + 10% FBS, 46.1 µM
[23] = RPMI 5 mM glucose + 10% dialyzed FBS, 0.000781 µM
[24] = RPMI 5 mM glucose + 10% dialyzed FBS, 0.00234 µM
[25] = RPMI 5 mM glucose + 10% dialyzed FBS, 0.00702 µM
[26] = RPMI 5 mM glucose + 10% dialyzed FBS, 0.0211 µM
[27] = RPMI 5 mM glucose + 10% dialyzed FBS, 0.0632 µM
[28] = RPMI 5 mM glucose + 10% dialyzed FBS, 0.19 µM
[29] = RPMI 5 mM glucose + 10% dialyzed FBS, 0.569 µM
[30] = RPMI 5 mM glucose + 10% dialyzed FBS, 1.71 µM
[31] = RPMI 5 mM glucose + 10% dialyzed FBS, 5.12 µM
[32] = RPMI 5 mM glucose + 10% dialyzed FBS, 15.4 µM
[33] = RPMI 5 mM glucose + 10% dialyzed FBS, 46.1 µM

SMILES | cell viability [1] | cell viability [2] | cell viability [3] | cell viability [4] | cell viability [5] | cell viability [6] | cell viability [7] | cell viability [8] | cell viability [9] | cell viability [10] | cell viability [11] | cell viability [12] | cell viability [13] | cell viability [14] | cell viability [15] | cell viability [16] | cell viability [17] | cell viability [18] | cell viability [19] | cell viability [20] | cell viability [21] | cell viability [22] | cell viability [23] | cell viability [24] | cell viability [25] | cell viability [26] | cell viability [27] | cell viability [28] | cell viability [29] | cell viability [30] | cell viability [31] | cell viability [32] | cell viability [33]
CC(=O)Nc1ccc([C@H](C)C(=O)Nc2ncc(C(C)C)s2)cc1 | 98.9% | 102% | 106% | 95.9% | 104% | 105% | 105% | 95.1% | 61.9% | 8.42% | 4.85% | 107% | 112% | 132% | 121% | 117% | 108% | 123% | 114% | 76% | 8.73% | 4.33% | 95.6% | 79.1% | 97.4% | 97.2% | 109% | 97.2% | 110% | 99.2% | 64.6% | 8.82% | 4.36%
O=C(NC[C@H]1CN(c2ccc(N3CCOCC3=O)cc2)C(=O)O1)c1ccc(Cl)s1 | 89.8% | 107% | 104% | 107% | 104% | 103% | 125% | 108% | 116% | 134% | 118% | 103% | 113% | 120% | 114% | 102% | 117% | 129% | 109% | 117% | 123% | 115% | 109% | 105% | 118% | 98.9% | 116% | 132% | 120% | 129% | 136% | 134% | 122%
Cc1c(Cn2c(C)nc3c(C(=O)O)cc(N4CCOCC4)cc32)cccc1C(F)(F)F | 84.5% | 101% | 109% | 111% | 101% | 97.1% | 115% | 109% | 103% | 117% | 103% | 93.2% | 115% | 102% | 106% | 103% | 112% | 119% | 114% | 107% | 89.1% | 88.5% | 94.1% | 105% | 100% | 109% | 112% | 95.5% | 103% | 95.5% | 90.1% | 92.3% | 79.8%
CC1(C)OC2CC3C4CC(F)C/5=C/C(=O)/C=C\C5(C)C4C(O)CC3(C)[C@@]2(O1)C(=O)CO (stereo partly specified) | 97.4% | 95.3% | 95.6% | 102% | 94.6% | 85.9% | 77.2% | 65.9% | 65.7% | 33.9% | 71.1% | 91.4% | 98.9% | 104% | 105% | 101% | 77.5% | 60.7% | 56% | 59.6% | 20.5% | 60.3% | 109% | 95.4% | 122% | 125% | 106% | 78% | 75.4% | 62.7% | 55.9% | 26% | 61.6%
NC(CO)(CO)CCc1ccc(Sc2cccc(OCc3ccccc3)c2)cc1Cl | 89.6% | 95.8% | 95.2% | 56.6% | 99.1% | 121% | 6.82% | 72.9% | 103% | 53.9% | 6.98% | 82.7% | 99% | 94.9% | 49.6% | 104% | 114% | 7.12% | 67.1% | 91.7% | 34.3% | 7.48% | 80.3% | 105% | 99.6% | 85.2% | 111% | 124% | 8.44% | 60.7% | 105% | 45.6% | 13.2%
CC1(C)C(=O)N(CCN2CCC(C(=O)c3ccc(F)cc3)CC2)c2ccccc21 | 92.5% | 111% | 113% | 111% | 119% | 119% | 119% | 113% | 103% | 98.7% | 101% | 102% | 121% | 115% | 115% | 105% | 117% | 115% | 100% | 89.7% | 107% | 94.2% | 111% | 109% | 105% | 134% | 116% | 115% | 117% | 124% | 111% | 114% | 101%
OC[C@H]1O[C@H]([C@@H](F)[C@@H]1O)N2\C=C/C(=O)NC2=O | 106% | 42.5% | 111% | 109% | 108% | 117% | 122% | 112% | 90.8% | 109% | 106% | 93.2% | 113% | 110% | 101% | 90.1% | 105% | 112% | 97% | 93.5% | 91.2% | 95.9% | 105% | 48.6% | 99.8% | 91.6% | 96.4% | 102% | 99.1% | 90.7% | 74% | 100% | 87.5%
